Laboratory results published in US12595253B2, “Benzamides of pyrazolylamino-pyrimidinyl derivatives, and compositions and methods thereof” (LYNK PHARMACEUTICALS CO. LTD., priority 2019, dated 2026).
Where a name gives a salt, the structure may show the parent alone. Values belong to the compound of their own block, whether it stands above or below them.

What was measured:
Format in all cases: biochemical
[1] = target: T1, JAK1 (Homo sapiens, UniProt P23458); assay: JAK1 microfluidic kinase assay (Caliper EZ Reader II, FAM labeled peptide substrate); settings: IC50 JAK1 (5 nM) (1 m MATP), JAK1 5 nM, 1 mM ATP
T1 construct: purchased Carna Biosciences
Procedure: (§1) Compounds were tested against JAK1, JAK2, JAK2V617F and TYK2. Assay Formats: JAK activity was determined in the reaction buffer 50 mM HEPES, 0.01% Brij35, 10 mM MgCl2, 2 mM DTT by a microfluidic assay. The phosphorylation of a FAM labeled peptide substrate was monitored in the Caliper EZ Reader II (Perkin Elmer). The assay condition for each batch of enzyme (Carna Biosciences) was optimized to obtain 10% conversion rate of peptide substrate. The test compounds were dissolved in DMSO to a stock concentration of 10 mM. 3-fold serially diluted compounds with top concentration of 5 μM were pre-incubated with JAK1, JAK2, JAK2V617F or TYK2 at indicated concentrations for 10 min at ambient temperature. The final DMSO concentration of assay mixture was 1%. […] The reaction was stopped by adding 50 mM EDTA. […] The percent inhibition was calculated by the following formula. % Inhibition=(Conversionmax−Conversionsample)/(Conversionmax−Conversionmin)*100 • Conversionmax means the conversion rate in the positive well without addition of compound • Conversionmin means the conversion rate in the well without addition of enzyme • Conversionsample means the conversion rate of test compounds The dose-response (percent inhibition) curve was plotted and IC50 values were determined by GraphPad software.

[2] = target: T2, JAK2V617F (Homo sapiens, UniProt O60674, V617F); assay: JAK2V617F microfluidic kinase assay (Caliper EZ Reader II, FAM labeled peptide substrate); settings: JAK2V617F 2.5 nM, 1 mM ATP
T2 construct: purchased Carna Biosciences
Procedure: as §1

[3] = target: T3, JAK2 (Homo sapiens, UniProt O60674); assay: JAK2 microfluidic kinase assay (Caliper EZ Reader II, FAM labeled peptide substrate)
T3 construct: purchased Carna Biosciences
Procedure: as §1

[4] = IC50 JAK2 ([…]) (1 mM ATP), 1 mM ATP
[5] = IC50 JAK2 ([…]) (Km ATP), Km ATP

T1 sequence (P23458 whole entry): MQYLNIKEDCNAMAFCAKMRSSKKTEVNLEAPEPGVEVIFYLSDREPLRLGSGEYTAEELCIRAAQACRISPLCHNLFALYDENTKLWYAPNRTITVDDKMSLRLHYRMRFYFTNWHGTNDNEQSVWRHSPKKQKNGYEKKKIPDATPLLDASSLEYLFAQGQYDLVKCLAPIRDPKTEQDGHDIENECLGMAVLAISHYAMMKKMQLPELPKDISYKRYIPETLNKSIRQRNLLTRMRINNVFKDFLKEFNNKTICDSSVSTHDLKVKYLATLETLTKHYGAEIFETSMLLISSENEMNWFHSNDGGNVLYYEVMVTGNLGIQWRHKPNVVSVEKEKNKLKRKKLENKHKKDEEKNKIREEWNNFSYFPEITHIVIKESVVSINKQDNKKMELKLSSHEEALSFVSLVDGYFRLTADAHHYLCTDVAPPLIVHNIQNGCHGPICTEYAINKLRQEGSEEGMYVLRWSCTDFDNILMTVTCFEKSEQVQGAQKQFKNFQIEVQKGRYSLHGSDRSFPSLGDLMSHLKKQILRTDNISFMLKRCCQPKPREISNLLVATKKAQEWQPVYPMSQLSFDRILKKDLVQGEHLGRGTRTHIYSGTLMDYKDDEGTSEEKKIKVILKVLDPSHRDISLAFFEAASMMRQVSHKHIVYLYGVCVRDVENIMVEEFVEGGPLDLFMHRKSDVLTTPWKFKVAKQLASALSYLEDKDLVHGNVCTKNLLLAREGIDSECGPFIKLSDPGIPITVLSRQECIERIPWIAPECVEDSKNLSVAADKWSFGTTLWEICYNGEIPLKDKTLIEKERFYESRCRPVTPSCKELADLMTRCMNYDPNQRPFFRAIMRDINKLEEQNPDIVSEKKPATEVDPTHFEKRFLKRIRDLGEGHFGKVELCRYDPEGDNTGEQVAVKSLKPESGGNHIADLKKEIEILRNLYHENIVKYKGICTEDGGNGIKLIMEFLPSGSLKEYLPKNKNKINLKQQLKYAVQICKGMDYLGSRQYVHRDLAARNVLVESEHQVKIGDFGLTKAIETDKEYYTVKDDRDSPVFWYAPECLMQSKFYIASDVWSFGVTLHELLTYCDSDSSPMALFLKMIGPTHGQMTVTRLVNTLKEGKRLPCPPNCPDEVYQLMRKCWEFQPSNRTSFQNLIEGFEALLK
T3 sequence (O60674 whole entry): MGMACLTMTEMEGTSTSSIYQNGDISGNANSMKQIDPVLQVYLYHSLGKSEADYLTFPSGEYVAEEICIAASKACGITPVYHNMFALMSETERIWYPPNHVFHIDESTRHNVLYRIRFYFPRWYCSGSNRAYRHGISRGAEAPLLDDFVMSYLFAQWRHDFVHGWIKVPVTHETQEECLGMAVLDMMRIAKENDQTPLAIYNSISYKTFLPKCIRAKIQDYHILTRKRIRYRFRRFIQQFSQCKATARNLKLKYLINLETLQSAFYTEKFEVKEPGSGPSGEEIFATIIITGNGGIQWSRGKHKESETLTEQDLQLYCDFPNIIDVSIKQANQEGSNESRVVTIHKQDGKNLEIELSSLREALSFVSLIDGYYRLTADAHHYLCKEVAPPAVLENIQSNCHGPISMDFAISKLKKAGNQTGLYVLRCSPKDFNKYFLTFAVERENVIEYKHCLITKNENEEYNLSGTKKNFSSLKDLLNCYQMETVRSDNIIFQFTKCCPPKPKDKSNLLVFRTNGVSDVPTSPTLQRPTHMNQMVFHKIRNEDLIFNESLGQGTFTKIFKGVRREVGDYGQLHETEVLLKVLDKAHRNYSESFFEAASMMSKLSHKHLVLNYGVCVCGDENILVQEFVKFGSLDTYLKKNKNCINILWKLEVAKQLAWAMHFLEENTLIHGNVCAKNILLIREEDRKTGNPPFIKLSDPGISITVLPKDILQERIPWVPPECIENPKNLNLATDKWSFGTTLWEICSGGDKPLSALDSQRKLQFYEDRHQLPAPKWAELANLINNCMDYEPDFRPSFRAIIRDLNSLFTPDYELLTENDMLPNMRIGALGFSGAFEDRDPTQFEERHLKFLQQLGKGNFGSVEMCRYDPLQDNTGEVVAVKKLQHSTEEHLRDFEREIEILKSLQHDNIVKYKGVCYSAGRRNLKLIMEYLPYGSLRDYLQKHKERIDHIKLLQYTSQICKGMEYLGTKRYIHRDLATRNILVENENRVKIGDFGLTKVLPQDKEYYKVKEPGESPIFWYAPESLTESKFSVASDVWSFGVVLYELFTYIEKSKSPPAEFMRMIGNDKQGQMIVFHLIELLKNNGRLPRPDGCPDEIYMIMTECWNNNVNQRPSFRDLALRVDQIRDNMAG
T2 sequence (O60674 whole entry V617F): as the sequence (O60674 whole entry) above, with V617F counted along it

SMILES: CC(=O)N1CC(n2cc(Nc3ncc(C)c(-c4ccc(C(=O)N[C@@H](C)C#N)cc4)n3)cn2)C1 [Example 157]
IC50 [1]: 0.0222 µM | IC50 [2]: 0.0331 µM

SMILES: C[C@H](C#N)NC(=O)c1ccc(-c2nc(Nc3cnn(C4CCN(C)CC4)c3)ncc2F)cc1 [Example 63, (R)—N-(1-Cyanoethyl)-4-(5-fluoro-2-((1-(1-methylpiperidin-4-yl)-1H-pyrazol-4-yl)amino)pyrimidin-4-yl)benzamide]
IC50 [1]: 0.293 µM | IC50 [2]: 0.842 µM

SMILES: Cc1cnc(Nc2cnn(CC(F)F)c2)nc1-c1ccc(C(=O)NCC#N)cc1 [Example 27, N-(Cyanomethyl)-4-(2-((1-(2,2-difluoroethyl)-1H-pyrazol-4-yl)amino)-5-methylpyrimidin-4-yl)benzamide]
IC50 [3, 4]: 0.0502 µM | IC50 [3, 5]: 0.00197 µM | IC50 [2]: 0.104 µM

SMILES: Cc1cnc(Nc2cnn(C3CC4CCC(C3)N4C(=O)C3(C)CC3)c2)nc1-c1ccc(C(=O)NCC#N)cc1 [Example 65, N-(cyanomethyl)-4-(5-methyl-2-((1-((1R,3r,5S)-8-(1-methylcyclopropanecarbonyl)-8-azabicyclo[3.2.1]octan-3-yl)-1H-pyrazol-4-yl)amino)pyrimidin-4-yl)benzamide]
IC50 [1]: 0.0272 µM | IC50 [2]: 0.00454 µM

SMILES: Cc1cnc(Nc2cnn(C3CCOCC3)c2)nc1-c1ccc(C(=O)N[C@H](C)C#N)cc1 [Example 96, (R)—N-(1-cyanoethyl)-4-(5-methyl-2-((1-(tetrahydro-2H-pyran-4-yl)-1H-pyrazol-4-yl)amino)pyrimidin-4-yl)benzamide]
IC50 [1]: 0.0515 µM | IC50 [2]: 0.0842 µM

SMILES: Cc1cnc(Nc2cnn(C3CC(F)(F)C3)c2)nc1-c1ccc(C(=O)NCC#N)cc1 [Example 104, N-(cyanomethyl)-4-(2-((1-(3,3-difluorocyclobutyl)-1H-pyrazol-4-yl)amino)-5-methylpyrimidin-4-yl)benzamide]
IC50 [1]: 0.28 µM | IC50 [3, 4]: 1.15 µM

SMILES: Cc1cnc(Nc2cnn(C3CCN(C(=O)C4CC4)CC3)c2)nc1-c1ccc(C(=O)N[C@@H](C)C#N)nc1 [Example 151, (S)—N-(1-cyanoethyl)-5-(2-((1-(1-(cyclopropanecarbonyl)piperidin-4-yl)-1H-pyrazol-4-yl)amino)-5-methylpyrimidin-4-yl)picolinamide]
IC50 [1]: 0.0721 µM | IC50 [3, 4]: 0.0324 µM

SMILES: Cc1cnc(Nc2cnn(CC(C)(C)C#N)c2)nc1-c1ccc(C(=O)NCC(F)(F)F)cc1 [Example 81, 4-(2-((1-(2-Cyano-2-methylpropyl)-1H-pyrazol-4-yl)amino)-5-methylpyrimidin-4-yl)-N-(2,2,2-trifluoroethyl)benzamide]
IC50 [2]: 0.114 µM

SMILES: Cn1cc(Nc2ncc(Cl)c(-c3ccc(C(=O)NCC4(C#N)CC4)cc3)n2)cn1 [Example 124]
IC50 [1]: 0.022 µM | IC50 [3, 4]: 0.0471 µM

SMILES: COC[C@@H](C#N)NC(=O)c1ccc(-c2nc(Nc3cnn(C4CC4)c3)ncc2C)cc1 [Example 187, (R)—N-(1-Cyano-2-methoxyethyl)-4-(2-((1-cyclopropyl-1H-pyrazol-4-yl)amino)-5-methylpyrimidin-4-yl)benzamide]
IC50 [1]: 0.00577 µM | IC50 [3, 4]: 0.0137 µM

SMILES: Cc1cnc(Nc2cnn(C)c2)nc1-c1ccc(C(=O)NCC2(O)CC2)cc1 [Example 32, N-((1-Hydroxycyclopropyl)methyl)-4-(5-methyl-2-((1-methyl-1H-pyrazol-4-yl)amino)pyrimidin-4-yl)benzamide]
IC50 [1]: 0.053 µM | IC50 [3, 4]: 0.165 µM | IC50 [3, 5]: 0.00515 µM

SMILES: Cc1cnc(Nc2cnn(C)c2)nc1-c1ccc(C(=O)NCCC#N)cc1 [Example 2, N-(2-Cyanoethyl)-4-(5-methyl-2-((1-methyl-1H-pyrazol-4-yl)amino)pyrimidin-4-yl)benzamide]
IC50 [1]: 0.0336 µM | IC50 [3, 4]: 0.0572 µM | IC50 [3, 5]: 0.00177 µM

SMILES: Cc1cnc(Nc2cnn(C3CCN(C(=O)C4(O)CC4)CC3)c2)nc1-c1ccc(C(=O)N[C@@H](C)C#N)cc1 [Example 79, (S)—N-(1-Cyanoethyl)-4-(2-((1-(1-(1-hydroxycyclopropanecarbonyl)piperidin-4=yl)-1H-pyrazol-4-yl)amino)-5-methylpyrimidin-4-yl)benzamide]
IC50 [2]: 0.00044 µM

SMILES: N#CCNC(=O)c1ccc(-c2nc(Nc3cnn(C4CCN(C(=O)C5CC5)CC4)c3)ncc2C(F)(F)F)cc1 [Example 161, N-(cyanomethyl)-4-(2-((1-(1-(cyclopropanecarbonyl)piperidin-4-yl)-1H-pyrazol-4-yl)amino)-5-(trifluoromethyl)pyrimidin-4-yl)benzamide]
IC50 [1]: > 5 µM | IC50 [3, 4]: > 5 µM

SMILES: Cc1cnc(Nc2cnn(C3CCNCC3)c2)nc1-c1ccc(C(=O)NCC(N)=O)cc1 [Example 82, N-(2-amino-2-oxoethyl)-4-(5-methyl-2-((1-(piperidin-4-yl)-1H-pyrazol-4-yl)amino)pyrimidin-4-yl)benzamide hydrochloride]
IC50 [1]: 0.3 µM | IC50 [3, 4]: 0.202 µM | IC50 [3, 5]: 0.00753 µM

More lines, now with the values ahead:

IC50 [1]: 0.00747 µM | IC50 [2]: 0.00693 µM
SMILES: Cc1cnc(Nc2cnn(C3CCOCC3)c2)nc1-c1ccc(C(=O)NCC(F)(F)F)cc1 [Example 76, 4-(5-Methyl-2-((1-(tetrahydro-2H-pyran-4-yl)-1H-pyrazol-4-yl)amino)pyrimidin-4-yl)-N-(2,2,2-trifluoroethyl)benzamide]

IC50 [1]: 0.0137 µM | IC50 [2]: 0.0346 µM
SMILES: Cc1cnc(Nc2cnn([C@H]3CC[C@@H](C#N)CC3)c2)nc1-c1ccc(C(=O)NCC#N)cc1 [Example 148, 4-(2-((1-(Cis-4-cyanocyclohexyl)-1H-pyrazol-4-yl)amino)-5-methylpyrimidin-4-yl)-N-(cyanomethyl)benzamide]

IC50 [1]: 0.0144 µM | IC50 [2]: 0.00418 µM
SMILES: Cc1cnc(Nc2cnn(C3CCN(C(=O)C4(O)CC4)CC3)c2)nc1-c1ccc(C(=O)NCC#N)cc1 [Example 74, N-(cyanomethyl)-4-(2-((1-(1-(1-hydroxycyclopropanecarbonyl)piperidin-4-yl)-1H-pyrazol-4-yl)amino)-5-methylpyrimidin-4-yl)benzamide]

IC50 [1]: 0.0015 µM | IC50 [2]: 0.0426 µM
SMILES: CC[C@@H](C#N)NC(=O)c1ccc(-c2nc(Nc3cnn(C4CC4)c3)ncc2C)cc1 [Example 193, (S)—N-(1-cyanopropyl)-4-(2-((1-cyclopropyl-1H-pyrazol-4-yl)amino)-5-methylpyrimidin-4-yl)benzamide]

IC50 [1]: 0.0115 µM | IC50 [3, 4]: < 0.00025 µM
SMILES: CC1(C)CC(n2cc(Nc3ncc(Cl)c(-c4ccc(C(=O)NCC#N)cc4)n3)cn2)CC(C)(C)O1 [Example 181, 4-(5-Chloro-2-((1-(2,2,6,6-tetramethyltetrahydro-2H-pyran-4-yl)-1H-pyrazol-4-yl)amino)pyrimidin-4-yl)-N-(cyanomethyl)benzamide]

IC50 [1]: 0.253 µM | IC50 [3, 4]: 0.114 µM | IC50 [3, 5]: 0.0036 µM
SMILES: Cc1cnc(Nc2cnn(C3CCN(C)CC3)c2)nc1-c1ccc(C(=O)N2CC(C#N)C2)cc1 [Example 92, 1-(4-(5-Methyl-2-((1-(1-methylpiperidin-4-yl)-1H-pyrazol-4-yl)amino)pyrimidin-4-yl)benzoyl)azetidine-3-carbonitrile]

IC50 [1]: 0.291 µM | IC50 [3, 4]: 0.219 µM | IC50 [3, 5]: 0.0053 µM
SMILES: N#CCNC(=O)c1ccc(-c2ccnc(Nc3cnn(C4CC4)c3)n2)cc1F [Example 139, N-(Cyanomethyl)-4-(2-((1-cyclopropyl-1H-pyrazol-4-yl)amino)pyrimidin-4-yl)-2-fluorobenzamide]

IC50 [1]: 0.00906 µM | IC50 [3, 4]: 0.00052 µM
SMILES: CC[C@@H](C#N)NC(=O)c1ccc(-c2nc(Nc3cnn(C4CCC(O)CC4)c3)ncc2C)cc1 (stereo partly drawn) [Example 205, (S)—N-(1-cyanopropyl)-4-(2-((1-(4-hydroxycyclohexyl)-1H-pyrazol-4-yl)amino)-5-methylpyrimidin-4-yl)benzamide]

IC50 [1]: 0.00461 µM | IC50 [3, 4]: 0.00112 µM
SMILES: [2H]c1c([2H])c(-c2nc(Nc3cnn(C4CC4)c3)ncc2Cl)c([2H])c([2H])c1C(=O)N[C@@H](C)C#N [Example 162, (S)-4-(5-chloro-2-((1-cyclopropyl-1H-pyrazol-4-yl)amino)pyrimidin-4-yl)-N-(1-cyanoethyl)benzamide-2,3,5,6-d4]

IC50 [1]: 0.00553 µM | IC50 [3, 4]: 0.0425 µM
SMILES: CC[C@@H](C#N)NC(=O)c1ccc(-c2nc(Nc3cnn(C)c3)ncc2C)cc1 [Example 219, (S)—N-(1-cyanopropyl)-4-(5-methyl-2-((1-methyl-1H-pyrazol-4-yl)amino)pyrimidin-4-yl)benzamide]

IC50 [1]: 0.0107 µM | IC50 [3, 4]: 0.00086 µM
SMILES: Cc1cnc(Nc2cnn(C3CCN(C(=O)C(C)(C)O)CC3)c2)nc1-c1ccc(C(=O)NC(C)C#N)cc1 (stereo in doubt) [Example 52, (S)—N-(1-cyanoethyl)-4-(2-((1-(1-(2-hydroxy-2-methylpropanoyl)piperidin-4-yl)-1H-pyrazol-4-yl)amino)-5-methylpyrimidin-4-yl)benzamide]

IC50 [1]: 0.0162 µM | IC50 [3, 4]: 0.07 µM
SMILES: CC[C@@H](C#N)NC(=O)c1ccc(-c2nc(Nc3cnn(C)c3)ncc2Cl)cc1 [Example 220, (S)-4-(5-chloro-2-((1-methyl-1H-pyrazol-4-yl)amino)pyrimidin-4-yl)-N-(1-cyanopropyl)benzamide]
